ChEMBL document CHEMBL3879901, “Substituted isoquinolin-1(2H)-ones, and methods of use thereof” (2012)
pIC50: −log10 of the molar value. Calls of active or inactive are those of the source. The rule behind the calls is not given here.

Tests used:
Mus musculus [1] = test: Reduction of TNP-Ficoll-induced T cell independent B cell activation in BDA-1 mouse assessed as decrease in IgG3 levels in serum at 3 mg/kg, po bid administered for 7 days by ELISA relative to control; type: functional
Rattus norvegicus [2] = test: Antiarthritic activity in type 2 collagen-induced po dosed Lewis rat arthritis model assessed as reduction in knee pannus administered every 12 hrs for 16 days measured on day 17 of post last dose by toluidine blue staining-based assay; type: functional, organism-based
Mus musculus [3] = test: Reduction of TNP-Ficoll-induced T cell independent B cell activation in BDA-1 mouse assessed as decrease in IgG3 levels in serum at 10 mg/kg, po bid administered for 7 days by ELISA relative to control; type: functional
Rattus norvegicus [4] = test: Antiarthritic activity in type 2 collagen-induced Lewis rat arthritis model assessed as reduction in ankle diameter at 10 to 60 mg/kg, po qd administered for 6 days measured every day of compound dosing and day 7 of post last dose; type: functional, organism-based
PI3K p110 beta/p85 alpha = PI3K p110 beta/p85 alpha (Homo sapiens, UniProt P42338); test: Inhibition of N-terminal His6-tagged recombinant full-length human p110beta/untagged recombinant full length p85alpha expressed in baculovirus infected Sf21 cells using phosphatidylinositol as substrate in presence of gamma-32P-ATP after 5 mins by thin layer chromatographic method
Chain of PI3K p110 beta/p85 alpha (P27986 whole entry): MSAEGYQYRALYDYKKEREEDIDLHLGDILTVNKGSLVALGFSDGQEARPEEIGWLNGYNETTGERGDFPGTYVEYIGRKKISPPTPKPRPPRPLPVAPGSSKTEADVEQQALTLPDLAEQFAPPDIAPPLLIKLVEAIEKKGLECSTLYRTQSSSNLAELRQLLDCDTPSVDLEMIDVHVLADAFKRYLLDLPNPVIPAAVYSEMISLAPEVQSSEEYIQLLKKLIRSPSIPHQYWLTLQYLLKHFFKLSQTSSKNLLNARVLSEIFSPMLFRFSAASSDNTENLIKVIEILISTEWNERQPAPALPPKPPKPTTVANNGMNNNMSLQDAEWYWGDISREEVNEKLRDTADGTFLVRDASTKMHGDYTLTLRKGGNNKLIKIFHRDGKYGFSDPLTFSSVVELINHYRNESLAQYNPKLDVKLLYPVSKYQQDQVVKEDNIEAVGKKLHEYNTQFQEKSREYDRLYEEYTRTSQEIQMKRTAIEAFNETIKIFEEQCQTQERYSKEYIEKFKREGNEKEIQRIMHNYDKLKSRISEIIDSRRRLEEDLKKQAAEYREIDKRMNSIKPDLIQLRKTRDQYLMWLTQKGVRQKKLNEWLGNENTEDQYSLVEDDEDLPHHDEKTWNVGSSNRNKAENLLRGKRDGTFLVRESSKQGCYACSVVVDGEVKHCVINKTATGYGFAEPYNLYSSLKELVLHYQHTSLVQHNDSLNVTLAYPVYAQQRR
Chain of PI3K p110 beta/p85 alpha (P42338 whole entry): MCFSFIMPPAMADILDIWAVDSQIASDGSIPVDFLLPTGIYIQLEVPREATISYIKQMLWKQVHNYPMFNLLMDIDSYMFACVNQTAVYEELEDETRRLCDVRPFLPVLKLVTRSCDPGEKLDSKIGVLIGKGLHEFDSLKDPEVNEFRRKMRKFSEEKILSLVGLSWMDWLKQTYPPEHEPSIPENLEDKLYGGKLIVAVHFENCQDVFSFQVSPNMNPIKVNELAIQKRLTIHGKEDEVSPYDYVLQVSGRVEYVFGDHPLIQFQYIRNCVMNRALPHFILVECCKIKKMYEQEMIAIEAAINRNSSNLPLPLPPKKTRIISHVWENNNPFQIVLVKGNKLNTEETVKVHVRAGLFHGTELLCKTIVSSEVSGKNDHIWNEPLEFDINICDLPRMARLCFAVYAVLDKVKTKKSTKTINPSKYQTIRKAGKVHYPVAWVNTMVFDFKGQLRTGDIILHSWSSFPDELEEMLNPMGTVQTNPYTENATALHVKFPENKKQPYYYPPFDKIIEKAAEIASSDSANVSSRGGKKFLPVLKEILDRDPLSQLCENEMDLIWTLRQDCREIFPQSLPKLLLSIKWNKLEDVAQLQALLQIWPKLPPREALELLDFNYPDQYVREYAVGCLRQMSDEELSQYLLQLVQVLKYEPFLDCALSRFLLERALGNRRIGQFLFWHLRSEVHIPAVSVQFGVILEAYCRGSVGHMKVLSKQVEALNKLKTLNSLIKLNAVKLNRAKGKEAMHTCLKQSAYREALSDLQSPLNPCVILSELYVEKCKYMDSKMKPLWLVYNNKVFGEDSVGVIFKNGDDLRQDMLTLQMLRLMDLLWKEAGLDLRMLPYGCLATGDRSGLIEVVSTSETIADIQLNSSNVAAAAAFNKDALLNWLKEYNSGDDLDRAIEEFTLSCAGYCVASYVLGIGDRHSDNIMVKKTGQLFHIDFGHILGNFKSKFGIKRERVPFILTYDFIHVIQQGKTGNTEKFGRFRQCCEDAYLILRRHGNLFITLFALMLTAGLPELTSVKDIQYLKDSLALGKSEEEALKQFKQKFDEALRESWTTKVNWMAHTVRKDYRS

Rattus norvegicus [5] = test: Antiarthritic activity in type 2 collagen-induced Lewis rat arthritis model assessed as reduction in serum anti-type 2 collagen levels at 30 mg/kg, po administered every 12 hrs for 16 days measured on day 17 of post last dose by ELISA relative to control; type: functional; parameters: scale not given: the % may be the effect or the level left
Rattus norvegicus [6] = test: Antiarthritic activity in complete freund's adjuvant-induced intrathecally dosed Lewis rat arthritis model assessed as reduction in paw volume administered on day 8 to 20 post arthritis induction measured every second day of compound dosing by water displacement plethysmometry; type: functional, organism-based
[7] = Toxicity in complete freund's adjuvant-induced intrathecally dosed Lewis rat arthritis model assessed as body weight loss at 10 to 60 mg/kg, administered intrathecally on day 8 to 20 post arthritis induction measured every second day of compound dosing; type: organism-based; details: in vivo, icv_or_intrathecal

With CC(=O)Nc1nc2ccc(-c3nn(Cc4cc5cccc(C)c5c(=O)n4-c4ccccc4C)c4ncnc(N)c34)cc2s1 the “fold change (FC)” value (Mus musculus [1]) was 0.8, the Activity (Rattus norvegicus [2]) was “Dose-dependent effect” and the “fold change (FC)” value (Mus musculus [3]) was 1.4. For the same molecule, the Activity (Rattus norvegicus [4]) was “Active”, the pIC50 (PI3K p110 beta/p85 alpha) was greater than 5.00 and the Activity (Rattus norvegicus [5]) was 87%. The Activity (Rattus norvegicus [6]) was “Dose-dependent effect” and the Activity [7] was “Toxic”.
